The text below walks through data of patent US20230226212A1, “MUSCLE-TARGETING COMPLEXES AND USES THEREOF” (Dyne Therapeutics, Inc., priority 2020, published 2023).

Series [1] concerns DMPK. Nature of the series: DMPK knockdown by unconjugated PMOs in primary human myotubes (Example 23). The format is cell-based. The settings on record: unconjugated PMO; 3 days; qPCR. The procedure:
Additional DMPK targeting oligonucleotides (PMOs) were designed and tested for their activity in reducing DMPK expression in primary human myotubes. Wild-type primary myoblasts were cultured in PromoCell Skeletal Muscle growth medium with 5% FBS and penicillin/streptomycin until nearly confluent. Cells were then seeded into a 96 well plate at 50000 cells per well and allowed to recover for 24 hours. Cells were then differentiated in a differentiation medium of DMEM with glutamine and penicillin/streptomycin for 7 days. Cells were then treated with the unconjugated PMO for 3 days. Total RNA was collected from cells, cDNA was synthesized and DMPK expression was measured by qPCR.

The test system of series [2] is DMPK. As to the kind of experiment: DMPK expression in NHP myotubes (Example 15). The format is cell-based. The conditions noted are these: dose-responsive. An excerpt:
(§1) The antisense oligonucleotides were further assessed to identify oligos that are safe in vivo (e.g., as indicated by low immunogenicity as measured by cytokine induction), and further based on manufacturability and secondary structure considerations. Three antisense oligonucleotides, […] (SEQ ID NO: 329, DMPK-ASO-1), […] (SEQ ID NO: 330, DMPK-ASO-2), and […] (SEQ ID NO: 331, DMPK-ASO-3) were selected. These oligonucleotides were then further evaluated for their ability to reduce DMPK expression in DM1 myotubes and NHP myotubes in a dose-responsive manner. The tool compound control DMPK-ASO was used as control.

Series [3] relates to DMPK. Nature of the series: DMPK expression in DM1 myotubes (Example 15). The conditions noted are these: dose-responsive. The format is cell-based.
Excerpt: as §1

For series [4], the system named is DMPK. Nature of the series: DMPK transcript knockdown by oligonucleotides in RD cells (Example 21). The format is cell-based. The conditions noted are these: free or transfected oligonucleotide, 3 days, relative to PBS-treated cells. The procedure:
DMPK-targeting oligonucleotides (e.g., ASO) were tested in rhabdomyosarcoma (RD) cells for knockdown of DMPK transcript expression. RD cells were cultured in a growth medium of DMEM with glutamine, supplemented with 10% FBS and penicillin/streptomycin until nearly confluent. Cells were then seeded into a 96 well plate at 20 K cells per well and were allowed to recover for 24 hours. Cells were then treated with free DMPK-targeting oligonucleotides or by transfection of the oligonucleotides using 0.3 µL per well of Lipofectamine MessengerMAX transfection reagent. After 3 days, total RNA was collected from cells, cDNA was synthesized and DMPK expression was measured by qPCR.

Series [5] deals with mdx mice. As to the kind of experiment: open field chamber with hind limb fatigue challenge in mdx mice (Example 14). Format: in vivo, mouse. The settings on record: single i.v. dose 30 mg/kg, two weeks after injection, hind limb fatigue challenge between stages. The procedure:
(§2) Each experimental condition was replicated in five mdx mice. Five wild-type mice (healthy mice) were also dosed with vehicle control (saline).
Two weeks after injection, the functional activity of all treated mice was determined using an open field chamber experiment. The experiment involved three consecutive stages: (1) a 10-minute period during which each mouse was placed into an open field chamber; (2) a 10-minute period during which each mouse was subjected to a hind limb fatigue challenge; and (3) a 10-minute period during which each mouse was placed into an open field chamber. The total horizontal distances traveled during stages (1) and (3) were collected. The percent change in the total distance traveled between the first and second tests.

Series [6] has as its system mdx mice. Nature of the series: cage running wheel test in mdx mice (Example 14). Format: in vivo, mouse. The conditions noted are these: single i.v. dose 30 mg/kg, four weeks after injection, 24-hour period. Here is the method:
as §2
Four weeks after injection, the activity of all treated mice was determined using a cage running wheel test. Each mouse was individually placed into cages with a running wheel for a 24-hour period. The 24-hour period involved five hours of light on followed by thirteen hours of darkness, and ending with six hours of light. The total distance traveled (in meters, m) by each mouse on the running wheel was continuously collected throughout the 24-hour period and subsequently binned into discrete one-hour increments.

The test system of another series is creatine kinase. As to the kind of experiment: creatine kinase activity levels in mdx mice (Example 14). The format is in vivo, mouse. The settings on record: single i.v. dose 30 mg/kg, two and four weeks after injection. Here is the method:
as §2
All mice in this Example were further tested for creatine kinase activity levels two weeks and four weeks after injection.

For series [7], the system named is DUX4. Nature of the series: expression of DUX4-associated genes in FSHD patient-derived myotubes (Example 26). Format: cell-based. The procedure: FSHD patient-derived myotubes were treated with FM-10 conjugated to an anti-TfRl Fab or naked FM-10. FM-10 has the sequence 5′-[…]-3′ (SEQ ID NO: 260). Expression of mRNA transcribed from three genes known to be only expressed following DUX4 activation was subsequently measured in the myotubes. Expression of these three DUX4-associated genes was reduced, as shown in FIG. 41A (naked oligonucleotide) and 41B (Ab-oligonucleotide).

Series [8] has as its system DUX4. Nature of the series: expression of downstream DUX4 genes in U-2 OS cells (Example 12). The settings on record: 72 hours. The format is cell-based, human. Here is the method:
Human U-2 OS cells were dosed with the complex. Briefly, U-2 OS cells were seeded at a density of 10 k cells/well before being allowed to recover overnight. […] Cells were incubated for 72 hours before being harvested for total RNA. cDNA was then synthesized from the total RNA extracts and qPCR was performed to determine expression of downstream DUX4 genes (ZSCAN4, MBD3L2, TRIM43) in technical quadruplicate. All qPCR data were analyzed using a standard ΔΔCT method and were normalized to a plate-based negative control comprised of untreated cells (i.e., without any oligonucleotide). Results were then converted to fold change to evaluate efficacy.

Series [9] deals with human transferrin receptor 1 (human) (UniProt P02786). Nature of the series: Carterra LSA biosensor, IgG captured on anti-IgG lawn, hTfR1 injected, 25C, 1:1 fit.
Chain of human transferrin receptor 1 (human) (P02786 89-760 limits assumed): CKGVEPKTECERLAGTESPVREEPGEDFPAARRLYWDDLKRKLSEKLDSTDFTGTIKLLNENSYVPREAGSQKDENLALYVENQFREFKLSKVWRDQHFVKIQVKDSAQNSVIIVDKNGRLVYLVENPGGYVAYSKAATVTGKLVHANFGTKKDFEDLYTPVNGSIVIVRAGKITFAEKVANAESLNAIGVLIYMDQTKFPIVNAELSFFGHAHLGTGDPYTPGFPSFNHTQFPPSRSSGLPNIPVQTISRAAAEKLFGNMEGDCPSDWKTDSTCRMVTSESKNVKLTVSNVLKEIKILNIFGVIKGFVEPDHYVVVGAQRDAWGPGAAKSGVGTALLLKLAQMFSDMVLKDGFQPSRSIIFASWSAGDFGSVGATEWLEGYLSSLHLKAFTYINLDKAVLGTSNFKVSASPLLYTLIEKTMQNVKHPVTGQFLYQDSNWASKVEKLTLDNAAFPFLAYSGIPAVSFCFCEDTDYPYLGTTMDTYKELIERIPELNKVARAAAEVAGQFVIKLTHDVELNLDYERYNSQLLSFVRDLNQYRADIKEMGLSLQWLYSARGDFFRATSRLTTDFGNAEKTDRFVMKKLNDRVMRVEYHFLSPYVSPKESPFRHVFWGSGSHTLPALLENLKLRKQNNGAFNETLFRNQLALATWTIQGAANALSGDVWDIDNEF

Where two headings read alike, the source gives them in different places.

For “ACGATGGGCTCCGCTGGG (SEQ ID NO: 316) (all phosphorodiamidate morpholino (PMO)) [PMO 8, DMPK-targeting PMO, Exon 2]”, the “% DMPK Knockdown in Primary Human Myotubes” value (from here on “% DMPK Knockdown”) in the series with DMPK [1] is recorded as 60%.

For “AGGGCAGTGCTTACCTGAGGG (SEQ ID NO: 326) (all phosphorodiamidate morpholino (PMO)) [PMO 41, DMPK-targeting PMO, Intron 9-10]”, the “% DMPK Knockdown” value in the series with DMPK [1] was found to be 57%.

In the case of “AGGTACTGAGAAGGGTTCGTC (SEQ ID NO: 319) (all phosphorodiamidate morpholino (PMO)) [PMO 11, DMPK-targeting PMO, Exon 5]”, in the series with DMPK [1], the “% DMPK Knockdown” value was 40%.

On to “ATGACCAGGTACTGAGAAGGG (SEQ ID NO: 318) (all phosphorodiamidate morpholino (PMO)) [PMO 10, DMPK-targeting PMO, Exon 5]”, for which, in the series with DMPK [1], the “% DMPK Knockdown” value came to 33%.

Regarding “ATGGGCTCCGCTGGGTGGTGG (SEQ ID NO: 315) (all phosphorodiamidate morpholino (PMO)) [PMO 7, DMPK-targeting PMO, Exon 2]”, the “% DMPK Knockdown” value in the series on DMPK [1] came out at 11%.

Consider “CAGGTGACAGTTCAGGTGCAG (SEQ ID NO: 309) (all phosphorodiamidate morpholino (PMO)) [PMO 1, DMPK-targeting PMO, intron 1-2]”, for which, in the series with DMPK [1], the “% DMPK Knockdown” value was 59%.

Take “CCACCCTCTGTCTGTCTCC (SEQ ID NO: 313) (all phosphorodiamidate morpholino (PMO)) [PMO 5, DMPK-targeting PMO, intron 1-2]”: the “% DMPK Knockdown” value in the series on DMPK [1] is 64%.

Turning to “CCATCCTTGGGCAGAGACCT (SEQ ID NO: 317) (all phosphorodiamidate morpholino (PMO)) [PMO 9, DMPK-targeting PMO, Intron 4-5]”, the “% DMPK Knockdown” value with DMPK [1] came out at 41%.

As to “CCAUCUCGGCCGGAAUCCGC (SEQ ID NO: 331) (chemistry not given here) [DMPK-ASO-3, DMPK-targeting antisense oligonucleotide]”, in the series on DMPK [2], the “reduction of DMPK expression in NHP myotubes” value (“reduction … in NHP myotubes” below) is reported as “dose-dependently reducing DMPK”. Further, the “reduction of DMPK expression in DM1 myotubes” value (“reduction … in DM1 myotubes” for short) with DMPK [3] was “dose-dependently reducing DMPK”. The DMPK expression level result with DMPK [4] is “reduced”.

For the substance “CCCAGCGCCCACCAGUCACA (SEQ ID NO: 330) (chemistry not given here) [DMPK-ASO-2, DMPK-targeting antisense oligonucleotide]”, the “reduction … in NHP myotubes” value with DMPK [2] is “dose-dependently reducing DMPK”. For the same substance, the “reduction … in DM1 myotubes” value with DMPK [3] is listed as “dose-dependently reducing DMPK”. For the same substance, the DMPK expression level result in the series with DMPK [4] is reported as “reduced”.

As to “CCTTCTCTCTGCCTCTCAGCTT (SEQ ID NO: 312) (all phosphorodiamidate morpholino (PMO)) [PMO 4, DMPK-targeting PMO, intron 1-2]”, the “% DMPK Knockdown” value in the series on DMPK [1] is listed as 58%.

“CGGAGCTCACCAGGTAGTTCT (SEQ ID NO: 325) (all phosphorodiamidate morpholino (PMO)) [PMO 40, DMPK-targeting PMO, Intron 4-5]”: in the series with DMPK [1], the “% DMPK Knockdown” value is recorded as 73%.

As for “GAGAAGGAAATAAGACCCAGTT (SEQ ID NO: 311) (all phosphorodiamidate morpholino (PMO)) [PMO 3, DMPK-targeting PMO, intron 1-2]”, in the series on DMPK [1], the “% DMPK Knockdown” value amounted to 14%.

Regarding “GCCTAGGGACCTGCGGGAGAG (SEQ ID NO: 321) (all phosphorodiamidate morpholino (PMO)) [PMO 13, DMPK-targeting PMO, Exon 15]”, the “% DMPK Knockdown” value in the series with DMPK [1] worked out at 62%.

Consider “GCCTTTTATTCGCGAGGGTCGG (SEQ ID NO: 322) (all phosphorodiamidate morpholino (PMO)) [PMO 14, DMPK-targeting PMO, polyA]”, for which the “% DMPK Knockdown” value in the series with DMPK [1] is listed as 73%.

As to “GCGUAGAAGGGCGUCUGCCC (SEQ ID NO: 329) (chemistry not given here) [DMPK-ASO-1, DMPK-targeting antisense oligonucleotide]”, the “reduction … in NHP myotubes” value in the series on DMPK [2] is “dose-dependently reducing DMPK”. Further, in the series with DMPK [3], the “reduction … in DM1 myotubes” value is “dose-dependently reducing DMPK”. The DMPK expression level result in the series with DMPK [4] is given as “reduced”.

Take “GGCCAAACCUCGGCUUACCUGAAAU (SEQ ID NO: 261) (PMO chemistry, chemistry not fully specified) [MDX-ASO, naked exon 23 skipping PMO ASO]”: in the series on mdx mice [5], the “average less distance traveled during stage (3) relative to stage (1), open field” value is on record as “about 85%”. In addition, the “distance traveled on running wheel during the dark period” value in the series with mdx mice [6] is “traveled considerably shorter distances”. Also, the creatine kinase activity result in the series with creatine kinase is “no significant benefit”.

The term IC50 denotes the point on the concentration scale where inhibition reaches its midpoint. On to “GGGCATTTTAATATATCTCTGAACT (SEQ ID NO: 260) (PMO chemistry, chemistry not fully specified) [naked FM10, phosphorodiamidate morpholino oligomer (PMO) targeting DUX4]”, for which, in the series with DUX4 [7], the “expression of three DUX4-associated genes” value is “reduced”. Besides, the IC50 turned out to be 1210 nM in the series with DUX4 [7] (MBD3L2 transcript, read-out: IC50 (nM), MBD3L2); 1120 nM in the series on DUX4 [7] (TRIM43 transcript, read-out: IC50 (nM), TRIM43); 643 nM in the series with DUX4 [7] (ZSCAN4 transcript, read-out: IC50 (nM), ZSCAN4). The “ZSCAN4, MBD3L2, and TRIM43 expression” value in the series on DUX4 [8] (1 µM) is listed as “fails to reduce”. Also, the MDB3L2 expression entry with DUX4 [8] (10 µM) is recorded as “no effect”. In addition, the “ZSCAN4 and TRIM43 expression” value with DUX4 [8] (10 µM) is reported as “modest reduction”.

With “TAGGCACTCACCCACTGCAAGA (SEQ ID NO: 324) (all phosphorodiamidate morpholino (PMO)) [PMO 39, DMPK-targeting PMO, Exon 1]”, in the series on DMPK [1], the “% DMPK Knockdown” value was found to be 69%.

Take “TAGGGACCTGCGGAGAGGGCGA (SEQ ID NO: 320) (all phosphorodiamidate morpholino (PMO)) [PMO 12, DMPK-targeting PMO, Exon 15]”: the “% DMPK Knockdown” value with DMPK [1] is 35%.

As to “TCCACCCTGACTCCAGGTGAC (SEQ ID NO: 310) (all phosphorodiamidate morpholino (PMO)) [PMO 2, DMPK-targeting PMO, intron 1-2]”, in the series on DMPK [1], the “% DMPK Knockdown” value amounted to 16%.

“TCCGCTGGGTGGTGGGAAAAGAA (SEQ ID NO: 314) (all phosphorodiamidate morpholino (PMO)) [PMO 6, DMPK-targeting PMO, Exon 2]”: the “% DMPK Knockdown” value in the series on DMPK [1] turned out to be 9%.

In the case of “TGGAGGGCCTTTTATTCGCGAGG (SEQ ID NO: 323) (all phosphorodiamidate morpholino (PMO)) [PMO 15, DMPK-targeting PMO, polyA]”, the “% DMPK Knockdown” value in the series on DMPK [1] is on record as 66%.

One may read the Kd as the equilibrium constant for the complex coming apart. A higher Kd goes with weaker binding. The kon is the rate constant with which the complex forms. Higher therefore signals fast association. In series [9], “anti-TfR1 antibody OKT9 (mouse IgG, control)” showed a Kd of 0.536 nM and a kon of 774000 M⁻¹ s⁻¹.
